Laboratory results from ChEMBL document CHEMBL5331121, “Preferred Conformation-Guided Discovery of Potent and Orally Active HIF Prolyl Hydroxylase 2 Inhibitors for the Treatment of Anemia” (J Med Chem, 2023).
Active and inactive are the calls of the source. The calls are words filed in the database; no cut-off is given here.

What was measured:
Egl nine homolog 1 = Egl nine homolog 1 (Homo sapiens, UniProt Q9GZT9); assay: Binding affinity to […] PHD2 (181 to 426 residues) (unknown origin) by fluorescence polarization assay
Sequence of Egl nine homolog 1 (Q9GZT9 whole entry, the tested form may be a part): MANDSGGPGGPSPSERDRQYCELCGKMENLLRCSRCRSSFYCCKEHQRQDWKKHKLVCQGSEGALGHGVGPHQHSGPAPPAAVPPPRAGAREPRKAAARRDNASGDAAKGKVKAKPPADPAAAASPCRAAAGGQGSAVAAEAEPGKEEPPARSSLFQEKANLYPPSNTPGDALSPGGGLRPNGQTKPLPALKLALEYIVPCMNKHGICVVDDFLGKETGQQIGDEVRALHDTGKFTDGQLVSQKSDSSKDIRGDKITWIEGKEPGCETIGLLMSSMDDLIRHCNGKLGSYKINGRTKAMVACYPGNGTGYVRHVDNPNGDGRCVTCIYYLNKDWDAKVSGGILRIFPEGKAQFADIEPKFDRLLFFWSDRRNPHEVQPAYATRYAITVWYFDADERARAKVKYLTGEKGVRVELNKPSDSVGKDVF

[1] = Metabolic stability in rat liver microsomes assessed as half life at 1 uM preincubated for 5 mins followed by NADPH addition and measured upto 60 mins by LC-MS/MS analysis; type: ADME, Microsome; settings: time < 65 min
[2] = Metabolic stability in rat liver microsomes assessed as clearance at 1 uM preincubated for 5 mins followed by NADPH addition and measured upto 60 mins by LC-MS/MS analysis; type: ADME, Microsome; settings: time < 65 min, read-out: CLH
Mus musculus = assay: Upregulation of reticulocytes in C57BL/6J mouse at 10 mg/kg, po administered once daily for 3 days; type: functional, organism-based; settings: time 3.0 day
Hep 3B2 [3] = assay: Cytotoxicity against human Hep3B cells incubated for 48 hrs by CCK-8 assay; type: toxicity, cell-based; settings: hep 3b2, 48 h
[4] = molecular target: Hypoxia-inducible factor 1-alpha (Homo sapiens) (UniProt Q16665); assay: Induction of HIF-1alpha stabilization in human Hep3B cells at 20 to 50 uM by Western blotting analysis; type: cell-based; settings: dose 20-50 µM
Sequence of Hypoxia-inducible factor 1-alpha (Homo sapiens) (Q16665 whole entry, looked up, the tested form may be a part): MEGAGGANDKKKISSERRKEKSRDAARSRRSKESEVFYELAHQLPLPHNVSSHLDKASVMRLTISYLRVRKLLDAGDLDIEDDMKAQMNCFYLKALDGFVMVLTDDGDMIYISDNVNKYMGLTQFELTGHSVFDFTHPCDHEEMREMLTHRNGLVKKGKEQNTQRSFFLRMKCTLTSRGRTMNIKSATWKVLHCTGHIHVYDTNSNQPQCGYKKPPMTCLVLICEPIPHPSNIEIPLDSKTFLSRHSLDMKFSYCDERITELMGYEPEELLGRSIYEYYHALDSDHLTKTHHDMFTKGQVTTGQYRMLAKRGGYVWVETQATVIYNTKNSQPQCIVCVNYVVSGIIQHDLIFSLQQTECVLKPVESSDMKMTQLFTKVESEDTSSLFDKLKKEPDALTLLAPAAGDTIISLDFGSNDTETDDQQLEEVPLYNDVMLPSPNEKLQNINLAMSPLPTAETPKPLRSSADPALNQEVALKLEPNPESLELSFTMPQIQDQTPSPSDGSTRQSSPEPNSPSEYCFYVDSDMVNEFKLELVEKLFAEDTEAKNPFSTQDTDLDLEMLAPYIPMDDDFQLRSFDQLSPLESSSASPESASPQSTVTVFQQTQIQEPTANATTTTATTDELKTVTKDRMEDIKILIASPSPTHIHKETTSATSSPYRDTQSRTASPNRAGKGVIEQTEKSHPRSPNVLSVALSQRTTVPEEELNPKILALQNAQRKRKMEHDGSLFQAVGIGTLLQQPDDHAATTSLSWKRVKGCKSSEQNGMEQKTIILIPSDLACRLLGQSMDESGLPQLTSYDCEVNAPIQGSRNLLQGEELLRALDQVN

[5] = molecular target: Endothelial PAS domain-containing protein 1 (Homo sapiens) (UniProt Q99814); assay: Induction of HIF-2alpha stabilization in human Hep3B cells at 20 to 50 uM by Western blotting analysis; type: cell-based; settings: dose 20-50 µM
Sequence of Endothelial PAS domain-containing protein 1 (Homo sapiens) (Q99814 whole entry, the tested form may be a part): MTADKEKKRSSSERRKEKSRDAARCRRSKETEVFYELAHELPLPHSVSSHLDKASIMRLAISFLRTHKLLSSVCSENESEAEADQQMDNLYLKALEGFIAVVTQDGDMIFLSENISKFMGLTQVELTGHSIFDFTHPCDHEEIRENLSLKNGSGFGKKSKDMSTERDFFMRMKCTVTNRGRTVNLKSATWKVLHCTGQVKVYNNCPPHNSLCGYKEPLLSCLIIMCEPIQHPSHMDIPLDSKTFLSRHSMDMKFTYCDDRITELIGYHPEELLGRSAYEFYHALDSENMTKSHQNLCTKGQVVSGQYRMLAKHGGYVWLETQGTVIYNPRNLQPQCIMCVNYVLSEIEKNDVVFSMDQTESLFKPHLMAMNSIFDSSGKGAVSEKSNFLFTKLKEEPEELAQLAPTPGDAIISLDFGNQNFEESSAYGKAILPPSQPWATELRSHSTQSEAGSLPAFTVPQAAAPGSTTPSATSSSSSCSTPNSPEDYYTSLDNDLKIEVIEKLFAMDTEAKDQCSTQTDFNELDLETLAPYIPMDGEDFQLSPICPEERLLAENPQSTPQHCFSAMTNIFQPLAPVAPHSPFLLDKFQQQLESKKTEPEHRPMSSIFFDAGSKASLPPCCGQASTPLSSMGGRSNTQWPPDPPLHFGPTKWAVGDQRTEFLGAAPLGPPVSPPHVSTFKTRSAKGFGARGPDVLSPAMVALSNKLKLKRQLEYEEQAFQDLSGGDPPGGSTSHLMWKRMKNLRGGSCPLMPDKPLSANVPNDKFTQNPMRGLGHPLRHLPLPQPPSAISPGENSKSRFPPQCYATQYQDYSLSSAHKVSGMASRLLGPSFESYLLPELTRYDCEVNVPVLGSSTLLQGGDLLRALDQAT

Hep 3B2 [6] = assay: Upregulation of EPO mRNA level in human Hep3B cells incubated for 12 hrs by RT-qPCR analysis; type: functional, cell-based; settings: dose 5-20 µM
[7] = Upregulation of EPO mRNA level in human Hep3B cells assessed as fold increase at 20 uM incubated for 12 hrs by RT-qPCR analysis; type: functional, Hep 3B2
Hep 3B2 [8] = assay: Effect on VEGFA gene expression in human Hep3B cells at 5 to 20 uM incubated for 12 hrs by RT-qPCR analysis; type: functional, cell-based; settings: dose 5-20 µM
Erythrocyte = assay: Upregulation of reticulocytes in C57BL/6J mouse assessed as increase in RBC at 10 to 50 mg/kg, po administered once daily for 3 days; type: functional, organism-based; settings: dose 10-50 mg/kg, time 3.0 day

| Compound | IC50 (Egl nine homolog 1) | also measured |
| --- | --- | --- |
| O=C(O)CNC(=O)c1ncc(C2=CCN(S(=O)(=O)Cc3ccc(C(F)(F)F)cc3)CC2)cc1O | 13.1 nM | half-life at 1 µM [1]: 7.35 min; microsomal CLint at 1 µM [2]: 135 µL/min/mg |
| O=C(O)CNC(=O)c1ncc(C2CCN(C(=O)c3ccc(Cl)cc3)CC2)cc1O | 34.5 nM |  |
| O=C(O)CNC(=O)c1ncc(C2CCN(C(=O)c3ccccc3)CC2)cc1O | 69.7 nM |  |
| O=C(O)CNC(=O)c1ncc(C2CCN(C(=O)c3ccccc3Cl)CC2)cc1O | 131 nM |  |
| O=C(O)CNC(=O)c1ncc(C2CCN(C(=O)c3cccs3)CC2)cc1O | 57.6 nM |  |
| O=C(O)CNC(=O)c1ncc(C2CCN(C(=O)c3ccccn3)CC2)cc1O | 158 nM |  |
| O=C(O)CNC(=O)c1ncc(C2CCN(S(=O)(=O)Cc3ccc(C(F)(F)F)cc3)CC2)cc1O | 98.9 nM | microsomal CLint at 1 µM [2]: 5 µL/min/mg |
| O=C(O)CNC(=O)c1ncc(C2CCN(C(=O)c3ccc(C(F)(F)F)cc3)CC2)cc1O | 44.3 nM | microsomal CLint at 1 µM [2]: 3.7 µL/min/mg; Activity (Mus musculus): Active |
| O=C(O)CNC(=O)c1ncc(C2CCN(C(=O)CNc3ccccc3)CC2)cc1O | 56.8 nM |  |

The next lines start with results.

| IC50 (Egl nine homolog 1) | Compound | also measured |
| --- | --- | --- |
| 24.3 nM | O=C(O)CNC(=O)c1ncc(C2CCN(C(=O)CNc3ccc(F)cc3)CC2)cc1O |  |
| 144 nM | O=C(O)CNC(=O)c1ncc(C2CCN(C(=O)c3ccc(Cl)cc3Cl)CC2)cc1O |  |
| 77.1 nM | O=C(O)CNC(=O)c1ncc(C2CCN(C(=O)c3cccc(F)c3)CC2)cc1O |  |
| 24.6 nM | O=C(O)CNC(=O)c1ncc(C2CCN(C(=O)c3ccc(OC(F)(F)F)cc3)CC2)cc1O | Activity (Mus musculus): Active; Activity (Hep 3B2 [3]): Non-Toxic; Activity [4]: Active; Activity [5]: Active; Activity (Hep 3B2 [6]): Dose-Dependent Effect; fold change (FC) [7]: 7; Activity (Hep 3B2 [8]): inactive; Activity (Erythrocyte): Dose-Dependent Effect |
| 32.5 nM | O=C(O)CNC(=O)c1ncc(C2CCN(C(=O)CNc3ccc(Cl)cc3Cl)CC2)cc1O |  |
| 43.4 nM | O=C(O)CNC(=O)c1ncc(C2CCN(C(=O)CNc3ccc(C(F)(F)F)cc3)CC2)cc1O | microsomal CLint at 1 µM [2]: 5.6 µL/min/mg |
